Measured values: patent EP0819380A1, “Bacteriocidal, antibacterial and bacteriostatic composition” (priority 1996, dated 1998)
Like-named read-outs stand apart in the source and are kept apart here.

What was measured:
[1] = system: herpes simplex I (HSV-1, strain VRIII); experiment: Inactivation of herpes simplex I (viral infectivity titer, CPE in Vero cells); type: cell-based; settings: for Viral infectivity titer when contacted for an hour (TCID50/25 µl): room temperature, composition 0.5% butyl p-oxybenzoate
[2] = system: influenza virus type B (FluV-B, strain B/Lee/40); type: cell-based
Type HIV-1 (LAI strain) = experiment: Inactivation of HIV (infectivity titer in MT-4 cells); type: cell-based; settings: summary of Table 6, concentration-dependent
mice = settings: p.o.; cited from earlier work
[3] = Composition : Viral solution 1 : 4, 1 hour
[4] = Composition : Viral solution 1 : 9, 1 hour
[5] = Composition : Viral solution 1 : 99, 1 hour
[6] = mixing ratio 1:9, Contact Time 0 minute
[7] = mixing ratio 1:9, Contact Time 5 minutes
[8] = mixing ratio 1:9, Contact Time 15 minutes
[9] = mixing ratio 1:9, Contact Time 30 minutes
[10] = mixing ratio 1:9, Contact Time 1 hour

Row | Compound | Viral infectivity titer when contacted for an hour (TCID50/25 µl) [1, 3] | Viral infectivity titer when contacted for an hour (TCID50/25 µl) [1, 4] | Viral infectivity titer when contacted for an hour (TCID50/25 µl) [1, 5] | Viral infectivity titer for various contact time periods (TCID50/25 µl) [1, 6] | Viral infectivity titer for various contact time periods (TCID50/25 µl) [1, 7] | Viral infectivity titer for various contact time periods (TCID50/25 µl) [1, 8] | Viral infectivity titer for various contact time periods (TCID50/25 µl) [1, 9] | Viral infectivity titer for various contact time periods (TCID50/25 µl) [1, 10] | Viral infectivity titer for various contact time periods (TCID50/25 µl) ([2]; 0.5 h) | Viral infectivity titer for various contact time periods (TCID50/25 µl) ([2]; 1 h) | Viral infectivity titer when contacted for an hour (TCID50/25 µl) ([2]; 1 h) | inactivation effect against HIV (Type HIV-1 (LAI strain)) | Acute toxicity (LD-50) (mice) [mg/kg] | Viral infectivity titer when contacted for an hour (TCID50/25 µl) ([2]; FluV-B, Composition : Viral solution 1 : 99, 1 hour, room temperature, composition 0.5% butyl p-oxybenzoate)
1 | CCO [70% Ethanol, Ethanol, reference compound] | 3.2 x 10^4 TCID50/25 µl | 5.6 x 10^4 TCID50/25 µl | 1.0 x 10^5 TCID50/25 µl | 3.2 x 10^4 TCID50/25 µl | 3.2 x 10^4 TCID50/25 µl | 1.8 x 10^4 TCID50/25 µl | 1.8 x 10^3 TCID50/25 µl | 5.6 x 10^4 TCID50/25 µl | 3.2 x 10^3 TCID50/25 µl | 5.6 x 10^3 TCID50/25 µl | 3.2 x 10^3 TCID50/25 µl |  |  | 
2 | CCOC(=O)c1ccc(O)cc1 [ethyl ester, ethyl p-oxybenzoate] |  |  |  |  |  |  |  |  |  |  |  | potent inactivation effect | 5000 | 
3 | CCCCOC(=O)c1ccc(O)cc1 [butyl ester, butyl p-oxybenzoate] | ≤3.2 x 10^1 TCID50/25 µl | ≤3.2 x 10^0 TCID50/25 µl | 1.8 x 10^4 TCID50/25 µl | 5.6 x 10^3 TCID50/25 µl | 3.2 x 10^0 TCID50/25 µl | 3.2 x 10^0 TCID50/25 µl | 3.2 x 10^0 TCID50/25 µl | 3.2 x 10^0 TCID50/25 µl |  |  |  |  | 17000 | 3.2 x 10^3 TCID50/25 µl
4 | CCCOC(=O)c1ccc(O)cc1 [propyl ester, Propyl p-oxybenzoate] |  |  |  |  |  |  |  |  |  |  |  |  | 8000 | 
